# In US9567301B2, “Pyrrol-1-yl benzoic acid derivatives useful as myc inhibitors” (Whitehead Institute for Biomedical Research, priority 2012, dated 2017):
# Tests used:
# MM1S cells = assay: Cell viability assay (ATPlite), MM1S; assay type: cell-based, human; settings: for EC50: cell viability, three days, ATPlite, NA: inactive under assay conditions
# Protocol: (§1) This assay was used for the H2171 and MM1S cell data shown in Table 2, and for the Jurkat (an immortalized line of human T lymphocyte cells), Ly1 (OCI-Ly1 human non-Hodgkin lymphoma cell line), Ly4 (OCI-Ly4 human non-Hodgkin lymphoma cell line), H2172 (NCI-H2172 human non-small cell lung cancer cell line), and CA-46 (a human Burkitt's lymphoma cell line) cell data shown in Table 3 and FIG. 12. Cells were counted and adjusted to 60,000 cells/mL. Using a Biotek EL406, 50 μL of cells are media were distributed into 384 well white plates from Thermo. Immediately after plating, compound in DMSO was distributed to plates. For large plate sets, cells were returned to 37° C. incubator while not in use.
# (§2) Compounds were added to plates using a 100 nL 384 well pin transfer manifold on a Janus workstation. Stocks were arrayed in 10 point quadruplicate dose response in DMSO stock in 384 well Greiner compound plates. After addition of compound, plates were incubated for three days in a 37° C. incubator.
# (§3) Cell viability was read out using ATPlite from Perkin Elmer. Plates were removed from the incubator and brought to room temperature prior to use. Lyophilized powder was resuspended in lysis buffer and diluted 1:2 with DI water. 25 μL of this solution was added to each well using the Biotek liquid handler. Plates were sealed with adherent aluminum seals prior to vortexing and spinning down at 1000 g for 1 minute. Plates were incubated for 15 minutes at room temperature before signal was read on an Envision Plate Reader.
# H2171 cells = assay: Cell viability assay (ATPlite), H2171; assay type: cell-based, human; settings: cell viability, three days, ATPlite, NA: inactive under assay conditions
# Protocol: as §1, §2, §3
# c-Myc/Max/Ebox DNA = c-Myc/Max/Ebox DNA (Homo sapiens, UniProt P01106); assay: c-Myc/Max/Ebox DNA AlphaScreen assay; assay type: binding; set-up: An exemplary assay uses full-length human c-Myc and Max proteins; his6 (cleaved yes); made in house; settings: c-Myc/Max/Ebox DNA AlphaScreen; NA: inactive under assay conditions; read-out: Biochemical IC50
# c-Myc/Max/Ebox DNA, sequence (P01106 16-454): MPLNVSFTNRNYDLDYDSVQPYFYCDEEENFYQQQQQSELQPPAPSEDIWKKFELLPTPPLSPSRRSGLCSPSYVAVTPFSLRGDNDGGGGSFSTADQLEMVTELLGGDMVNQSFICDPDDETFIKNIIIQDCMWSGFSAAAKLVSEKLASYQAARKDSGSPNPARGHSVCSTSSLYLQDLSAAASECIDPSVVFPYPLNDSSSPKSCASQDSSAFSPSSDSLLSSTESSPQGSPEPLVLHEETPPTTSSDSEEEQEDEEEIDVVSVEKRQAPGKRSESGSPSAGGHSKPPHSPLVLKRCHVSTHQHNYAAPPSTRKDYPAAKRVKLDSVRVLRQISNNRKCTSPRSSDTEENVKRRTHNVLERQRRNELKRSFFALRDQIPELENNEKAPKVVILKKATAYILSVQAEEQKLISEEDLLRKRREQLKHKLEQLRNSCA
# Protocol: This protocol was used to generate the biochemical data in Table 2 and FIG. 11. The primary AlphaScreen assay is amenable to 384-well and 1536-well plate formats for HTS. Human his6-c-Myc and his6-Max were used with biotinylated DNA containing a single Ebox sequence (biotin[…]) purchased from MWG Operon. Free c-Myc was generated from his6-c-Myc through thrombin cleavage of the his6 tag. For 384-well plate assays, 10 μL of a 2× solution of free c-Myc (25 nM final), Ni++-coated Acceptor Bead (25 μg/ml final), and biotinylated Ebox oligo (10 nM final) were added to 384-well plates with a Biotek EL406 liquid handler. 100 nL of compounds from stock plates were added by pin transfer using a Janus Workstation (PerkinElmer), allowing the compounds to interact with c-Myc prior to c-Myc binding with Max. In the current assay, DMSO was not allowed to exceed 2% v/v of the assay. 10 μl of 2× master mix containing streptavidin-coated donor beads (25 μg/ml final) and his6-Max (1.25 nM final) were added. AlphaScreen measurements were performed on an Envision 2104 (PerkinElmer) utilizing the manufacturer's protocol. The assay can also be performed in 1536-plate format with 8 μL total volume using two 4 μL additions (instead of […] and 10 μL respectively).
# Assays are performed with minor modifications from the manufacturer's protocol (PerkinElmer). Both master mixes were made in room temperature assay buffer (50 mM HEPES, 150 mM NaCl, 0.2% w/v BSA, 0.02% w/v Tween20, 40 μg/ml glycogen, 500 μM DTT, pH 8.0, DTT and glycogen added fresh). Alpha beads were added to respective master solutions and wrapped in foil. All subsequent steps were performed in low light conditions. Solution 1: 2× solution of components with final concentrations of cMyc (25 nM), Ni-coated Acceptor Bead (25 μg/ml), and biotinylated Ebox oligo (10 nM). Solution 2: 2× solution of streptavidin-coated donor beads (25 μg/ml final) and his6-Max (1.25 nM final). […] Solution 1 were added to 384-well plate (AlphaPlate-384, PerkinElmer) with Biotek EL406 liquid handler and the plates were centrifuged at 1000 rpm for 1 minute. 100 nL of compounds from stock plates were added by pin transfer using a Janus Workstation. 10 μL Solution 2 were added with the liquid handler. Plates were sealed with foil to block light exposure and prevent evaporation. Plates were centrifuged at 1000 rpm for 1 minute followed by 2 hour incubation. AlphaScreen measurements were performed on an Envision 2104 utilizing the manufacturer's protocol. Excitation was at 680 nm for donor bead release of singlet oxygen and emission was read with a bandpass filter from 520-620 nm. Glycogen: Roche Diagnostics #10901393001. Plate 1536: Perkin Elmer, 6004350. Plate 384: Perkin Elmer, 6005350. Nickel-His Alpha Beads: 6760619R.
SMILES,"EC50 (MM1S cells; Homo sapiens, MM1.S, 72 h) [µM]",EC50 (H2171 cells) [µM],IC50 (c-Myc/Max/Ebox DNA) [µM],EC50 (MM1S cells) [µM],"EC50 (H2171 cells; Homo sapiens, NCI-H2171, 72 h) [µM]","cellular activity/potency in cellular proliferation assay (MM1S cells; MM1.S, prodrug relative to free acid (FIG. 3, FIG. 4))"
Cc1ccc(C)n1-c1cc(C(=O)NN)ccc1C(=O)O [Compound 70],1240,43.7,6.98,–,–,–
Cc1ccc(C)n1-c1ccc(C(=O)O)c(O)c1 [Compound 65],–,189,61.9,1440,–,–
Cc1ccc(C)n1-c1cnccc1C(=O)O [Compound 135],305,–,6800,–,–,–
Cc1ccc(C)n1-c1cc(C(=O)N/N=C/c2cc(C(F)(F)F)cc(C(F)(F)F)c2)ccc1C(=O)O [Compound 98],5170,–,3.84,–,24100,–
CC(=O)OCOC(=O)c1ccc(-n2c(C)ccc2C)cc1O [Compound 113],–,2.8,–,11,–,–
Cc1ccc(C)n1-c1ccc(C(=O)O)c(Cl)c1 [Compound 6],208,–,81.5,–,76.3,–
CCOC(=O)c1ccc(-n2c(CCC(=O)O)ccc2-c2ccc(OC)cc2)cc1O [Compound 24],83.2,–,116,–,166,–
Cc1ccc(C)n1-c1cc(C(=O)N/N=C/c2ncc[nH]2)ccc1C(=O)O [Compound 81],–,–,2.72,–,106,–
CC(=O)OCOC(=O)c1ccc(C(=O)N/N=C/c2c(CO)cnc(C)c2O)cc1-n1c(C)ccc1C [Compound 111],21.8,–,–,–,2.4,–
Cc1ccc(C)n1-c1ccc(C(=O)O)c(O)c1 [Compound 127],–,517,53.3,517,–,–
Cc1ccc(C)n1-c1c(C(=O)O)cccc1[N+](=O)[O-] [Compound 132],647,–,–,–,310,–
Cc1ccc(C)n1-c1cc(C(=O)N/N=C/c2ccc(N(C)C)cc2)ccc1C(=O)O [Compound 87],86.5,–,31.4,–,–,–
COC(=O)c1ccccc1-n1c(C)ccc1C [Compound 14],223,–,97.3,–,86.3,–
Cc1ccc(C)n1-c1cc(C(=O)N/N=C/c2c(Cl)ncnc2Cl)ccc1C(=O)O [Compound 88],8080,–,4.88,–,–,–
Cc1c(C)c(C)n(-c2ccccc2C(=O)O)c1C [Compound 138],194,–,–,–,270,–
Cc1ccc(C)n1-c1cc(C(=O)NCCc2c[nH]cn2)ccc1C(=O)O [Compound 72],2760,–,15.4,–,198,–
Cc1ccc(C)n1-c1cc(C(=O)N/N=C/c2cccc3ncccc23)ccc1C(=O)O [Compound 106],–,–,15.1,–,144,–
CCOC(=O)c1ccc(-n2c(CCC(=O)O)ccc2-c2ccc(Br)cc2)cc1O [Compound 23],58,–,81.6,–,64.9,–
CC(=O)OCOC(=O)c1ccc(C(=O)N/N=C/c2ccc(-c3nnn[nH]3)cc2)cc1-n1c(C)ccc1C [Compound 109],9.99,–,–,–,1.02,–
Cc1ccc(C)n1-c1cc(C(=O)N/N=C/c2ccc3cccnc3n2)ccc1C(=O)O [Compound 105],118,–,2.97,–,–,–
COc1ccc(/C=N/NC(=O)c2ccc(C(=O)O)c(-n3c(C)ccc3C)c2)c(OC)c1 [Compound 85],–,–,37.9,–,97.3,–
Cc1ccc(C)n1-c1cc(C(=O)N2CCOCC2)ccc1C(=O)O [Compound 75],–,–,8.58,–,114,–
CC(=O)OCOC(=O)c1ccc(C(=O)N/N=C/c2ccc(S(=O)(=O)O)o2)cc1-n1c(C)ccc1C [Compound 112],9.25,–,–,–,1.04,–
Cc1ccc(C)n1-c1cc(C(=O)N/N=C\c2ccc(C(=O)O)s2)ccc1C(=O)O [Compound 122],–,–,0.492,–,174,–

SMILES,"EC50 (MM1S cells; Homo sapiens, MM1.S, 72 h) [µM]",EC50 (H2171 cells) [µM],IC50 (c-Myc/Max/Ebox DNA) [µM],EC50 (MM1S cells) [µM],"EC50 (H2171 cells; Homo sapiens, NCI-H2171, 72 h) [µM]","cellular activity/potency in cellular proliferation assay (MM1S cells; MM1.S, prodrug relative to free acid (FIG. 3, FIG. 4))"
CC(=O)OCOC(=O)c1cccc(/C=N/NC(=O)c2ccc(C(=O)OCOC(C)=O)c(-n3c(C)ccc3C)c2)c1 [acetomoxymethyl ester prodrug],–,–,–,–,–,increases cellular potency
Cc1ccc(C)n1-c1ccc(Cl)cc1C(=O)O [Compound 147],–,–,11.5,–,170,–
Cc1ccc(C)n1-c1cc(C(=O)O)ccc1C(=O)O [Compound 157],11000,–,–,–,–,–
Cc1ccc(C)n1-c1ccc(C(=O)O)cc1O [Compound 7],–,–,23.5,–,122,–
COc1ncc(/C=N/NC(=O)c2ccc(C(=O)O)c(-n3c(C)ccc3C)c2)c(OC)n1 [Compound 100],–,–,7.67,–,266,–
Cc1ccc(C)n1-c1cc(C(=O)N/N=C/c2cncnc2)ccc1C(=O)O [Compound 93],263,–,5.56,–,–,–
Cc1ccc(C)n1-c1ccccc1C(N)=O [Compound 133],450,–,–,–,–,–
Cc1ccc(C)n1-c1cccc(C(=O)c2ccccc2)c1C(=O)O [Compound 136],–,–,94.7,–,215,–
Cc1ccc(C)n1-c1ccc(C(=O)O)c([N+](=O)[O-])c1 [Compound 163],98.5,–,155,–,–,–
COC(=O)c1ccc(-n2cccc2)cc1O [Compound 9],127,–,–,–,229,–
O=C(O)c1ccccc1-n1c2ccccc2c2ccccc21 [Compound 141],148,–,–,–,268,–
Cc1cc(C)c2c(=O)c(/C=N/NC(=O)c3ccc(C(=O)O)c(-n4c(C)ccc4C)c3)coc2c1 [Compound 97],1040,–,5.55,–,–,–
COc1cc(-n2c(C)ccc2C)c(Cl)cc1C(=O)O [Compound 131],–,–,493,–,3400,–
Cc1ccc(C)n1-c1cc(C(=O)N/N=C/c2ccc3ccccc3n2)ccc1C(=O)O [Compound 90],52.5,–,17.5,–,–,–
CC(=O)OCOC(=O)c1ccc(C(=O)N/N=C/c2ccc3cccnc3n2)cc1-n1c(C)ccc1C [Compound 115],13.6,–,–,–,0.913,–
CC(=O)Oc1cc(-n2c(C)ccc2C)ccc1C(=O)O [Compound 66],3570,–,–,–,67.9,–
Cc1ccc(C)n1-c1cc(C(=O)N/N=C\c2ccc(S(=O)(=O)O)cc2)ccc1C(=O)O [Compound 123],–,–,0.291,–,96.4,–
CC(=O)OCOC(=O)c1ccc(-n2c(C)ccc2C)cc1O [Compound 144],–,–,–,446,–,–
Cc1ccc(C)n1-c1cc(C(=O)NN)ccc1C(=O)O [Compound 142],–,–,7.58,625,–,–
Cc1ccc(C)n1-c1cc(C(=O)N/N=C/c2cc(F)ccc2C(F)(F)F)ccc1C(=O)O [Compound 91],4260,–,3.99,–,–,–
CC(=O)OCOC(=O)c1cccc(/C=N/NC(=O)c2ccc(C(=O)OCOC(C)=O)c(-n3c(C)ccc3C)c2)c1 [Compound 114],11.7,–,–,–,1.21,–
CC(=O)OCOC(=O)c1ccccc1-n1ccnc1C [Compound 151],156,–,–,–,43.5,–
CC(=O)OCOC(=O)c1ccccc1N1CCN(C)CC1 [Compound 159],209,–,–,–,84.1,–
